Reference: patent US6184365A, “Anthracycline derivatives having 4-amino-2,4,6-trideoxy-2 fluoro-α-L-talopyranosyl group” (priority 1996, dated 2001)
In brackets after ≈: the same amount, converted by molar mass. Entries after “also recorded” stand apart in the source; their conditions may differ.

How the values were obtained:
[1] = tested on: various human cancer cells; assay: in vitro tests against various human cancer cells; assay type: cell-based; conditions: for antitumor or anticancer activity compared with adriamycin: human cancer cells as well as mouse leukemia P388 and P388/ADR cells; for anticancer activities against various human cancer cells compared with adriamycin: in vitro
Method: (§1) Adriamycin was used as a comparative compound and was tested in the same manner as above.
(§2) The different kinds of human cancer cells tested were six kinds indicated below, including human chronic myelogenous leukemia (K562), human vaginal melanoma (HMV-1), human nasopharyngeal carcinoma (KB), human gastric adenocarcinoma (MKN-1), human lung non-small cell carcinoma (PC-14) and human bladder carcinoma (T24).

[2] = tested on: human lung non-small cell carcinoma (PC-14); assay: Growth inhibition of human lung non-small cell carcinoma (PC-14); assay type: cell-based; conditions: for IC50: Homo sapiens, PC-14, 72 hours, read-out: IC50
Method: as §1, §2

[3] = tested on: human nasopharyngeal carcinoma (KB); assay: Growth inhibition of human nasopharyngeal carcinoma (KB); assay type: cell-based; conditions: KB, 72 hours, read-out: IC50
Method: as §1, §2

[4] = tested on: adriamycin-resistant P388 cells (P388/ADR); assay: Growth inhibition of adriamycin-resistant P388 cells (P388/ADR); assay type: cell-based, mouse; conditions: for IC50: Mus musculus, 72 hours, read-out: IC50
Method: as §1

[5] = tested on: human vaginal melanoma (HMV-1); assay: Growth inhibition of human vaginal melanoma (HMV-1); assay type: cell-based; conditions: HMV-1, 72 hours, read-out: IC50
Method: as §1, §2

[6] = tested on: Leukemia L-1210 cells; assay: Antitumor activity against leukemia in CDF1 mice inoculated with Leukemia L-1210 cells; assay type: in vivo, mouse; conditions: for Increase (%) in life-span (T/C, %): i.p., once a day for 9 days, as hydrochloride; for antitumor activity against mouse Leukemia L-1210 cell compared with adriamycin: low dosages
Method: Thus, to evaluate the antitumor effects of the novel compounds of this invention against experimental tumors in animals, CDF1 mice (four mice per group) were intraperitoneally inoculated with cells of Leukemia L-1210 at an amount of 1×10^5 cells/mouse. Since an elapse of 24 hours from the inoculation of the leukemia cells, a test compound of this invention was administered intraperitoneally to the mice under test once a day for consecutive 9 days, with the test compound being given as its hydrochloride in the form of a solution in a physiological saline. […] In the meanwhile, mice of the control group (the untreated group) were administered only with physiological saline after the inoculation of the L-1210 cells. During the observation period, the number of the surviving mice was counted for both the treated group and the control group, and the mean survival days of mice of both the treated group and the control group were calculated. Then, the percentages (%) of the increase in the life-span of the treated mice was estimated, as T/C (%), in terms of the mean survival day (C) of the untreated mice of the control group and the mean survival day (T) of the treated mice of the treated group. For comparison purposes, similar tests were effected using daunomycin (as hydrochloride) and adriamycin (as hydrochloride). The mean survival day of mice of the control group (the untreated group) was 8 to 9 days, and the mean survival day of mice of the comparative groups having received the administration of daunomycin or adriamycin usually varied dependently on the dosage of the compound tested.
Incidentally, in respect of the fractional numbers parenthesized below the numerical values of increase (%) in the life-span, the denominator of the fraction denotes the number of mice tested in one test group but the numerator of the fraction denotes the number of mice which survived for 60 days or longer.

[7] = tested on: human gastric adenocarcinoma (MKN-1); assay: Growth inhibition of human gastric adenocarcinoma (MKN-1); assay type: cell-based; conditions: for IC50: Homo sapiens, MKN-1, 72 hours, read-out: IC50
Method: as §1, §2

[8] = tested on: human chronic myelogenous leukemia (K562); assay: Growth inhibition of human chronic myelogenous leukemia (K562); assay type: cell-based; conditions: for IC50: Homo sapiens, K562, 72 hours, read-out: IC50
Method: as §1, §2

[9] = Solubility in water; assay type: physicochemical
[10] = tested on: mouse leukemia P388 cells; assay: Growth inhibition of mouse leukemia P388 cells; assay type: cell-based; conditions: P388, 72 hours, read-out: IC50
Method: as §1

[11] = tested on: human bladder carcinoma (T24); assay: Growth inhibition of human bladder carcinoma (T24); assay type: cell-based; conditions: for IC50: Homo sapiens, T24, 72 hours, read-out: IC50
Method: as §1, §2

[12] = human, in vivo; cited from earlier work
[13] = tested on: mouse Leukemia L-1210 cell; conditions: in vivo, cited from earlier work
[14] = earlier derivatives; cited from earlier work
[15] = tested on: various human cancer cells; conditions: in vitro; cited from earlier work

| Compound | antitumor or anticancer activity compared with adriamycin [1] | anticancer activities against various human cancer cells compared with adriamycin [1] | IC50 [2] | IC50 [3] | anticancer activity, folds higher than that of adriamycin [4] | IC50 [4] | IC50 [5] | Increase (%) in life-span (T/C, %) ([6]; 0.15 mg/kg/day) | Increase (%) in life-span (T/C, %) ([6]; 0.3 mg/kg/day) | Increase (%) in life-span (T/C, %) ([6]; 0.6 mg/kg/day) | number of mice which survived for 60 days or longer / number tested ([6]; 1.25 mg/kg/day) | Increase (%) in life-span (T/C, %) ([6]; 1.25 mg/kg/day) | Increase (%) in life-span (T/C, %) ([6]; 2.5 mg/kg/day) | Increase (%) in life-span (T/C, %) ([6]; 5 mg/kg/day) | antitumor activity against mouse Leukemia L-1210 cell compared with adriamycin [6] | IC50 [7] | IC50 [8] | solubility [9] | IC50 [10] | IC50 [11] | also measured |
| --- | --- | --- | --- | --- | --- | --- | --- | --- | --- | --- | --- | --- | --- | --- | --- | --- | --- | --- | --- | --- | --- |
| COc1cccc2c1C(=O)c1c(O)c3c(c(O)c1C2=O)C[C@@](O)(C(C)=O)C[C@@H]3O[C@@H]1O[C@@H](C)[C@@H](N)[C@@H](O)[C@H]1F [Compound (a), 7-O-(4-amino-2,4,6-trideoxy-2-fluoro-α-L-talopyranosyl)daunomycinone] | higher antitumor or anticancer activities than those of adriamycin | remarkably improved anticancer activities | 0.17 µg/mL (≈ 0.312 µM) | 0.028 µg/mL (≈ 0.0513 µM) | 29.1 folds | 0.086 µg/mL (≈ 0.158 µM) | 0.071 µg/mL (≈ 0.13 µM) | 127% | 152% | 182% | 2/4 | > 463% | 235% | 175% | substantially equal to or higher than that of adriamycin | 0.12 µg/mL (≈ 0.22 µM) | 0.087 µg/mL (≈ 0.159 µM) | 10 mg/mL (≈ 18300 µM) | < 0.0098 µg/mL | 0.047 µg/mL (≈ 0.0862 µM) | antitumor activity compared with daunomycin ([6]; 0.6~1.25 mg/kg): antitumor activities higher than those of daunomycin |
| COc1cccc2c1C(=O)c1c(O)c3c(c(O)c1C2=O)C[C@@](O)(C(=O)CO)C[C@@H]3O[C@@H]1O[C@@H](C)[C@@H](N)[C@@H](O)[C@H]1F [Compound (b), 7-O-(4-amino-2,4,6-trideoxy-2-fluoro-α-L-talopyranosyl)adriamycinone] | higher antitumor or anticancer activities than those of adriamycin | remarkably improved anticancer activities | 0.12 µg/mL (≈ 0.214 µM) | 0.023 µg/mL (≈ 0.041 µM) | 13.9 folds | 0.18 µg/mL (≈ 0.321 µM) | 0.056 µg/mL (≈ 0.0997 µM) | 155% | > 400% | > 403% | 1/4 | > 330% | 139% | 92% | substantially equal to or higher than that of adriamycin | 0.062 µg/mL (≈ 0.11 µM) | 0.063 µg/mL (≈ 0.112 µM) | 15 mg/mL (≈ 26700 µM) | < 0.0098 µg/mL | 0.026 µg/mL (≈ 0.0463 µM) | anticancer activity, folds higher than that of adriamycin ([2]; PC-14): 5.2 folds; antitumor activity (T/C, %) compared with daunomycin ([6]; 0.15 mg/kg to 0.6 mg/kg): remarkably enhanced anticancer or antitumor activities; development of toxicity in words ([6]; 0.3 mg/kg to 0.6 mg/kg): did not involve the development of toxicity; also recorded: the development of toxicities is not involved; number of mice which survived for 60 days or longer / number tested ([6]; 0.3 mg/kg/day): 1/4; number of the mice surviving for 60 days (fully cured) ([6]; 0.3 mg/kg~0.6 mg/kg, pooled): two in eight; number of mice which survived for 60 days or longer / number tested ([6]; 0.6 mg/kg/day): 1/4; antitumor activity compared with adriamycin ([6]; 0.3~0.6 mg/kg, adriamycin at 0.3~0.6 mg/kg): markedly enhanced anticancer or antitumor activities; anticancer activity, folds higher than that of adriamycin ([7]; MKN-1): 4 folds; anticancer activity, folds higher than that of adriamycin ([8]; K562): 6.2 folds; anticancer activity, folds higher than that of adriamycin ([11]; T24): 6.2 folds |
| COc1cccc2c1C(=O)c1c(O)c3c(c(O)c1C2=O)C[C@@](O)(C(C)=O)C[C@@H]3O[C@H]1C[C@H](N)[C@H](O)[C@H](C)O1 [Daunomycin, reference compound] |  |  |  |  |  |  |  | 132% | 112% | 145% |  | 158% | 171% | 138% |  |  |  |  |  |  | side-effects [12]: serious side-effects such as leukocytopenia, alopecia, myocardiopathy and others; development of toxicity in words ([6]; 2.5 to 5 mg/kg/day): accompanied by the development of toxicity |
| COc1cccc2c1C(=O)c1c(O)c3c(c(O)c1C2=O)C[C@@](O)(C(=O)CO)C[C@@H]3O[C@@H]1O[C@@H](C)[C@H](N)[C@@H](O)[C@H]1F [compound of the formula (D-b), 7-O-(4-amino-2,4,6-trideoxy-2-fluoro-α-L-mannopyranosyl)adriamycinone] |  |  |  |  |  |  |  |  |  |  |  |  |  |  |  |  |  |  |  |  | antitumor activity against mouse Leukemia L-1210 cell over adriamycin ([13]; low dosages): remarkably improved antitumor activity; antitumor activity against experimental tumors in animals [13]: remarkably high antitumor activity; solubility in water [14]: soluble in water; anticancer activity against various human cancer cells compared with adriamycin [15]: substantially as high as those of adriamycin |
